Reference: ChEMBL document CHEMBL6115011, “Optimizing biofilm inhibitors: Balancing activity and toxicity in 2N-aminated 5-aryl-2-aminoimidazoles” (Bioorg Med Chem, 2025)

Columns and labels:
Escherichia coli [1] = assay: Antibacterial activity against Escherichia coli TG1 at 25 degree C measured after 24 hrs by crystal violet staining based microplate reader analysis; type: functional, organism-based; conditions: TG1, 24 h
[2] = system: Staphylococcus epidermidis; assay: Inhibition of biofilm formation in Staphylococcus epidermidis at 25 degree C measured after 48 hrs by crystal violet staining based analysis; type: functional, organism-based
[3] = Genotoxicity in human CAPAN-1 cells at 100 to 400 uM measured after 3 hrs by Western blot analysis; type: toxicity, cell-based; conditions: capan-1, 3 h, dose 100-400 µM
[4] = Cytotoxicity against human PBMC cells assessed as survival rate at 25 to 100 uM measured after 72 hrs by trypan blue staining based assay; type: toxicity, cell-based; conditions: dose 25-100 µM
Staphylococcus aureus [5] = assay: Inhibition of biofilm formation in methicillin-resistant Staphylococcus aureus at 25 degree C measured after 48 hrs by crystal violet staining based analysis; type: functional, organism-based
Staphylococcus aureus [6] = assay: Inhibition of biofilm formation in Staphylococcus aureus SH1000 at 25 degree C measured after 48 hrs by crystal violet staining based analysis; type: functional, organism-based; conditions: SH1000, 48 h
Pseudomonas aeruginosa [7] = assay: Inhibition of biofilm formation in Pseudomonas aeruginosa PA14 at 25 degree C measured after 24 hrs by crystal violet staining based analysis; type: functional, organism-based; conditions: PA14, 24 h
Pseudomonas aeruginosa [8] = assay: Antibacterial activity against Pseudomonas aeruginosa PA14 at 25 degree C measured after 24 hrs by crystal violet staining based microplate reader analysis; type: functional, organism-based; conditions: PA14, 24 h
Staphylococcus aureus [9] = assay: Antibacterial activity against methicillin-resistant Staphylococcus aureus at 25 degree C measured after 48 hrs by crystal violet staining based microplate reader analysis; type: functional, organism-based
Staphylococcus aureus [10] = assay: Antibacterial activity against Staphylococcus aureus SH1000 at 25 degree C measured after 48 hrs by crystal violet staining based microplate reader analysis; type: functional, organism-based; conditions: SH1000, 48 h
[11] = Cytotoxicity against human PBMC cells assessed as survival rate at 400 uM measured after 72 hrs by trypan blue staining based assay (reference value: 48%); type: toxicity, cell-based; conditions: read-out: Survival
Escherichia coli [12] = assay: Inhibition of biofilm formation in Escherichia coli TG1 at 25 degree C measured after 24 hrs by crystal violet staining based microplate reader analysis; type: functional, organism-based; conditions: TG1, 24 h
[13] = system: Staphylococcus epidermidis; assay: Antibacterial activity against Staphylococcus epidermidis at 25 degree C measured after 48 hrs by crystal violet staining based microplate reader analysis; type: functional, organism-based
[14] = Cytotoxicity against human PBMC cells assessed as survival rate at 25 uM measured after 72 hrs by trypan blue staining based assay (reference value: 94.0%); type: toxicity, cell-based; conditions: read-out: Survival
[15] = Cytotoxicity against human PBMC cells assessed as survival rate at 100 uM measured after 72 hrs by trypan blue staining based assay relative to control; type: toxicity, cell-based; conditions: read-out: Survival
[16] = Cytotoxicity against human PBMC cells assessed as survival rate at 400 uM measured after 72 hrs by trypan blue staining based assay relative to control; type: toxicity, cell-based; conditions: read-out: Survival

SMILES	IC50 (Escherichia coli [1])	IC50 [2]	Activity [3]	Activity [4]	IC50 (Staphylococcus aureus [5])	IC50 (Staphylococcus aureus [6])	IC50 (Pseudomonas aeruginosa [7])	IC50 (Pseudomonas aeruginosa [8])	IC50 (Staphylococcus aureus [9])	IC50 (Staphylococcus aureus [10])	viability at 72 h, 400 µM [11]	IC50 (Escherichia coli [12])	IC50 [13]	viability at 72 h, 25 µM [14]	viability at 72 h, 100 µM [15]	viability at 72 h, 400 µM [16]
NCCCCNc1ncc(-c2ccccc2)[nH]1	56.6 µM	33.3 µM	Non-toxic	Non-toxic	138 µM	155 µM	17 µM	85.8 µM	578 µM	287 µM	9%	35.3 µM	–	–	–	–
NCCCCCCNc1ncc(-c2ccccc2)[nH]1	55.3 µM	29.2 µM	Non-toxic	–	62.7 µM	95.6 µM	23.4 µM	73.4 µM	206 µM	186 µM	–	26.5 µM	164 µM	78.6%	12.9%	2.9%
